Measurements: patent US20260306429A1, “COMPOSITION FOR REDUCING METHANE PRODUCTION AND IMPROVING NITROGEN UTILIZATION EFFICIENCY OF RUMINANT ANIMALS COMPRISING HALOACETAMIDE AS ACTIVE INGREDIENT” (CHUNGANG UNIVERSITY INDUSTRY ACADEMIC COOPERATION FOUNDATION, priority 2024, published 2026)

Legend:
[1] = test system: Ruminococcus albus; assay: qPCR absolute quantification of Ruminococcus albus after in vitro rumen incubation; type: cell-based; details: 0.2 mmol/L, 24 h
Description: (§1) Rumen fluid was sampled from Hanwoo cows at the Nonghyup Research Farm in Anseong, Gyeonggi Province, and mixed with buffer at a ratio of 1:2 within 1 hour of sampling. Oat hay was used as the forage, and pelleted feed for the middle fattening period was used as the concentrate. After grinding, the forage and concentrate were mixed at a ratio of 1:1 after passing through a 1-mm screen. 50 ml of culture medium was dispensed into 0.5 g of dry matter, and the control group and the five experimental groups (acrylamide, chloroacetamide, glycolamide, iodoacetamide, and propionamide) were each incubated for 24 hours with five replicates. The control group was incubated in 50 mL of culture medium, whereas the experimental groups were incubated in 49.9 mL of culture medium plus 0.1 mL of deionized water. For the five experimental groups, the supplementation level of each amide was set to 0.2 mmol/L (final concentration), and the amounts added were 1.4216 mg/g for acrylamide, 1.8702 mg/g for 2-chloroacetamide, 1.4618 mg/g for propionamide, 1.5014 mg/g for glycolamide, and 3.6992 mg/g for iodoacetamide.
(§2) Gas pressure was measured at 0, 3, 6, 12, and 24 hours (gas collection intervals), and the gas released during each measurement was collected to determine the total gas production and methane production up to the final 24 hours. After completing the 24-hour incubation, pH, ammonia nitrogen (NH3—N), dry matter digestibility, neutral detergent fiber digestibility, volatile fatty acids (VFA), and the microbiome were analyzed.
(§3) Metagenomic DNA was extracted using the RBB+C method, followed by qPCR analysis and microbiome analysis. Microbial functions were predicted using PICRUSt2. Taxonomic drivers of differentially enriched MetaCyc pathways were identified using Fish Taco (Functional Shifts' Taxonomic Contributor).
(§4) Data conforming to normal distribution and homogeneity of variance were analyzed using the GLIMMIX procedure of SAS and Tukey's HSD test. […] Differences in the overall bacteriota and their functional profiles were analyzed using PERMANOVA. Differentially abundant microbial biomarkers were identified using multivariable association analysis with the MaAsLin2 R package, based on relatively abundant bacterial taxa and predicted microbial functions.
(§5) For the control group and the five experimental groups (acrylamide, chloroacetamide, glycolamide, iodoacetamide, and propionamide), the effects of the amide compounds on the absolute quantification of total bacteria, methanogens, protozoa, and specific cellulolytic bacterial species (Fibrobacter succinogenes, Ruminococcus flavefaciens, Ruminococcus albus, and Prevotella ruminicola) are presented in Table 3 below as quantitative real-time PCR data.

[2] = test system: Ruminococcus flavefaciens; assay: qPCR absolute quantification of Ruminococcus flavefaciens after in vitro rumen incubation; type: cell-based; details: 0.2 mmol/L, 24 h
Description: as §1, §2, §3, §4, §5

[3] = test system: Fibrobacter succinogenes; assay: qPCR absolute quantification of Fibrobacter succinogenes after in vitro rumen incubation; type: cell-based; details: 0.2 mmol/L, 24 h
Description: as §1, §2, §3, §4, §5

[4] = test system: rumen fluid; assay: In vitro incubation of rumen fluid: digestibility, fermentation characteristics, gas and methane production, VFA; type: cell-based, Hanwoo cows; details: 0.2 mmol/L; for CH4 (methane production per gram of degraded dry matter) / CH4 (methane production) / TGP (total gas production): up to 24 h
Description: as §1, §2, §4

[5] = test system: Prevotella ruminicola; assay: qPCR absolute quantification of Prevotella ruminicola after in vitro rumen incubation; type: cell-based; details: 0.2 mmol/L, 24 h
Description: as §1, §2, §3, §4, §5

[6] = test system: Total protozoa; assay: qPCR absolute quantification of protozoa after in vitro rumen incubation; type: cell-based, rumen fluid of Hanwoo cows; details: 0.2 mmol/L, 24 h
Description: as §1, §2, §3, §4, §5

[7] = test system: Total bacteria; assay: qPCR absolute quantification of total bacteria after in vitro rumen incubation; type: cell-based, rumen fluid of Hanwoo cows; details: 0.2 mmol/L, 24 h
Description: as §1, §2, §3, §4, §5

[8] = test system: rumen microbiome; assay: Alpha-diversity measurements of the rumen microbiome; type: cell-based, rumen fluid of Hanwoo cows; details: 0.2 mmol/L, 24 h
Description: as §1, §2, §3, §4
The alpha-diversity measurements for the control group and the five experimental groups (acrylamide, chloroacetamide, glycolamide, iodoacetamide, and propionamide) are presented in Table 4 below.

[9] = test system: Total methanogen; assay: qPCR absolute quantification of methanogens after in vitro rumen incubation; type: cell-based, rumen fluid of Hanwoo cows; details: 0.2 mmol/L, 24 h
Description: as §1, §2, §3, §4, §5

[10] = test system: rumen microbiota; assay: Differentially abundant genera and species in response to haloacetamide treatment; taxonomic drivers; type: cell-based, rumen fluid of Hanwoo cows; details: in words
Description: Rumen fluid was sampled from Hanwoo cows at the Nonghyup Research Farm in Anseong, Gyeonggi Province, and mixed with buffer at a ratio of 1:2 within 1 hour of sampling. Oat hay was used as the forage, and pelleted feed for the middle fattening period was used as the concentrate. After grinding, the forage and concentrate were mixed at a ratio of 1:1 after passing through a 1-mm screen. 50 ml of culture medium was dispensed into 0.5 g of dry matter, and the control group and the five experimental groups (acrylamide, chloroacetamide, glycolamide, iodoacetamide, and propionamide) were each incubated for 24 hours with five replicates. […]
Gas pressure was measured at 0, 3, 6, 12, and 24 hours (gas collection intervals), and the gas released during each measurement was collected to determine the total gas production and methane production up to the final 24 hours. After completing the 24-hour incubation, pH, ammonia nitrogen (NH3—N), dry matter digestibility, neutral detergent fiber digestibility, volatile fatty acids (VFA), and the microbiome were analyzed. […]
Data conforming to normal distribution and homogeneity of variance were analyzed using the GLIMMIX procedure of SAS and Tukey's HSD test. […] Differences in the overall bacteriota and their functional profiles were analyzed using PERMANOVA. […]

Compound | Ruminococcus albus (absolute quantification, qPCR) [1] | Ruminococcus flavefaciens (absolute quantification, qPCR) [2] | Fibrobacter succinogenes (absolute quantification, qPCR) [3] | A:P ratio (acetate:propionate ratio) ([4]; 24 h) | DMD (dry matter digestibility) ([4]; 24 h) | NDFD (neutral detergent fiber digestibility) ([4]; 24 h) | NH3—N (ammonia nitrogen) ([4]; 24 h) | pH ([4]; 24 h) | Acetate ([4]; 24 h, VFA composition) | Butyrate ([4]; 24 h, VFA composition) | Isobutyrate ([4]; 24 h, VFA composition) [%] | Isovalerate ([4]; 24 h, VFA composition) | Propionate ([4]; 24 h, VFA composition) | Valerate ([4]; 24 h, VFA composition) | Acetate ([4]; 24 h, concentration) | Butyrate ([4]; 24 h, concentration) | Isobutyrate ([4]; 24 h, concentration) | Isovalerate ([4]; 24 h, concentration) | Propionate ([4]; 24 h, concentration) | Total VFA (total volatile fatty acids) ([4]; 24 h, concentration) | also measured
C=CC(N)=O [AA, acrylamide] | 7.77^B | 8.31^B | 9.39^C | 3.03^A | 78.14^AB % | 42.04^B % | 16.61^A mg/dL | 6.21 | 61.85^A % | 13.87^B % | 0.88 | 1.23^ABC % | 20.42^C % | 1.76^B % | 43.81^A mM | 9.82^AB mM | 0.62^A mM | 0.87^A mM | 14.45^AB mM | 70.82^A mM | Valerate ([4]; 24 h, concentration): 1.24 mM; CH4 (methane production per gram of degraded dry matter) [4]: 29.06^A mL/g dDM; CH4 (methane production) [4]: 11.35^A mL; TGP (total gas production) [4]: 145.83^A mL; Prevotella ruminicola (absolute quantification, qPCR) [5]: 9.44^C; Total protozoa (absolute quantification, qPCR) [6]: 9.78; Total bacteria (absolute quantification, qPCR) [7]: 10.30^AB; Chao1 [8]: 284.8^B; Evenness [8]: 0.8823^B; Observed features [8]: 284.8^B; Shannon [8]: 7.1896^B; Simpson [8]: 0.9883^B; Total methanogen (absolute quantification, qPCR) [9]: 8.38^A
NC(=O)CCl [CLA, 2-chloroacetamide] | 7.96^A | 8.27^B | 9.54^B | 2.34^B | 77.82^AB % | 43.61^B % | 13.90^B mg/dL | 6.19 | 55.96^B % | 16.30^A % | 0.80 | 1.09^BC % | 23.89^B % | 1.95^AB % | 35.41^BC mM | 10.25^A mM | 0.50^BC mM | 0.68^B mM | 15.07^AB mM | 63.14^AB mM | Valerate ([4]; 24 h, concentration): 1.22 mM; methane-reducing effects ([4]; 24 h, in words, from Table 1): excellent methane-reducing effects; CH4 (methane production per gram of degraded dry matter) [4]: 10.71^C mL/g dDM; CH4 (methane production) [4]: 4.17^C mL; TGP (total gas production) [4]: 134.49^B mL; Prevotella ruminicola (absolute quantification, qPCR) [5]: 9.58^B; Total protozoa (absolute quantification, qPCR) [6]: 9.77; Total bacteria (absolute quantification, qPCR) [7]: 10.28^B; Chao1 [8]: 382.3^AB; Evenness [8]: 0.8847^AB; Observed features [8]: 380.8^AB; Shannon [8]: 7.5719^AB; Simpson [8]: 0.9903^AB; differentially abundant bacteria [10]: increases bacteria belonging to the genera Fibrobacter, Anaeroplasma, Treponema, and Succinivibrio, and the species Ruminococcus albus; Total methanogen (absolute quantification, qPCR) [9]: 8.05^AB
NC(=O)CO [GA, glycolamide] | 7.71^B | 8.29^B | 9.36^C | 2.92^A | 79.40^A % | 40.82^B % | 14.76^AB mg/dL | 6.22 | 60.74^A % | 14.30^B % | 0.93 | 1.32^A % | 20.83^C % | 1.88^AB % | 37.24^ABC mM | 8.74^B mM | 0.57^AB mM | 0.80^A mM | 12.77^B mM | 61.27^AB mM | Valerate ([4]; 24 h, concentration): 1.15 mM; CH4 (methane production per gram of degraded dry matter) [4]: 26.85^B mL/g dDM; CH4 (methane production) [4]: 10.65^B mL; TGP (total gas production) [4]: 141.74^A mL; Prevotella ruminicola (absolute quantification, qPCR) [5]: 9.42^C; Total protozoa (absolute quantification, qPCR) [6]: 9.69; Total bacteria (absolute quantification, qPCR) [7]: 10.25^B; Chao1 [8]: 436.4^AB; Evenness [8]: 0.8956^A; Observed features [8]: 435.6^AB; Shannon [8]: 7.8466^A; Simpson [8]: 0.9927^A; Total methanogen (absolute quantification, qPCR) [9]: 8.33^A
CCC(N)=O [PA, propionamide] | 7.71^B | 8.31^B | 9.35^C | 2.96^A | 78.34^AB % | 41.80^B % | 16.50^A mg/dL | 6.22 | 60.97^A % | 14.31^B % | 0.92 | 1.30^AB % | 20.64^C % | 1.86^AB % | 38.55^AB mM | 9.04^AB mM | 0.58^AB mM | 0.82^A mM | 13.04^B mM | 63.20^AB mM | Valerate ([4]; 24 h, concentration): 1.17 mM; CH4 (methane production per gram of degraded dry matter) [4]: 28.32^AB mL/g dDM; CH4 (methane production) [4]: 11.09^AB mL; TGP (total gas production) [4]: 143.63^A mL; Prevotella ruminicola (absolute quantification, qPCR) [5]: 9.45^C; Total protozoa (absolute quantification, qPCR) [6]: 9.79; Total bacteria (absolute quantification, qPCR) [7]: 10.27^B; Chao1 [8]: 406.2^AB; Evenness [8]: 0.8873^AB; Observed features [8]: 405.6^AB; Shannon [8]: 7.6692^A; Simpson [8]: 0.9913^AB; Total methanogen (absolute quantification, qPCR) [9]: 8.42^A
